Structures can show the parent of a compound that is named as a salt. Marks after values point to notes of the source that are not given here.
Assay: Plasma metabolite profiling (GC-MS, LC-MS, SPE-LC-MS) of rats dosed once daily over 28 days; treatment ratios versus untreated control
Format: in vivo, rat
Settings: for 5-Oxoproline, plasma metabolite ratio versus control / Alanine, plasma metabolite ratio versus control / Arginine (second line of the table), plasma metabolite ratio versus control / Arginine, plasma metabolite ratio versus control / Citrulline, plasma metabolite ratio versus control / Glutamine, plasma metabolite ratio versus control / Proline, plasma metabolite ratio versus control / Tyrosine, plasma metabolite ratio versus control: high dose
In short: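 Male and female rats (5/sex/group) dosed once daily for 28 days; fasted anaesthetized animals bled retro-orbitally (EDTA plasma) on days 7, 14, 28, stored −80 °C under N2. Polar and lipid fractions profiled by GC-MS (derivatized), LC-MS/MRM; steroids by online SPE-LC-MS. Pool-normalized data; treatment ratios vs sex-matched controls, Welch test p-values.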

[1] = plasma, female rats, day 7, high dose, Table 9a
[2] = plasma, female rats, day 7, high dose, Table 9b
[3] = plasma, female rats, day 14, high dose, Table 9a
[4] = plasma, female rats, day 14, high dose, Table 9b
[5] = plasma, female rats, day 28, high dose, Table 9a
[6] = plasma, female rats, day 28, high dose, Table 9b
[7] = plasma, male rats, day 7, high dose, Table 9c
[8] = plasma, male rats, day 7, high dose, Table 9d
[9] = plasma, male rats, day 14, high dose, Table 9c
[10] = plasma, male rats, day 14, high dose, Table 9d
[11] = plasma, male rats, day 28, high dose, Table 9c
[12] = plasma, male rats, day 28, high dose, Table 9d
[13] = plasma, female rats, day 28, high dose, Table 6a
[14] = plasma, female rats, day 28, high dose, Table 6b
[15] = plasma, female rats, day 28, high dose, Table 8c
[16] = plasma, female rats, day 28, high dose, Table 8d
[17] = plasma, female rats, day 7, high dose, Table 4a
[18] = plasma, female rats, day 7, high dose, Table 4b
[19] = plasma, female rats, day 14, high dose, Table 4a
[20] = plasma, female rats, day 14, high dose, Table 4b
[21] = plasma, female rats, day 28, high dose, Table 4a
[22] = plasma, female rats, day 28, high dose, Table 4b

## Cn1ncc(C(=O)c2ccc(S(C)(=O)=O)c(C3=NOCC3)c2Cl)c1O [[3-(4,5-dihydro-isoxazol-3-yl)-4-methylsulfonyl-2-chlorphenyl](5-hydroxy-1-methyl-1H-pyrazol-4-yl)methanone]
[1]
  4-Hydroxyphenylpyruvate, ratio versus control: 26.68*
  Glycine, ratio versus control: 1.37*
  Phosphatidylcholine (C18:0,C18:2), ratio versus control: 1.12*
  Serine, ratio versus control: 1.16*
  TAG (C16:0,C18:2), ratio versus control: 2.56*
  TAG (C18:1,C18:2), ratio versus control: 2.72*
  TAG (C18:2,C18:2), ratio versus control: 3.93*
  Threonine, ratio versus control: 1.16
  Tyrosine, ratio versus control: 16.36*
  gamma-Linolenic acid (C18:cis[6,9,12]3), ratio versus control: 1.44*
[2]
  5-Oxoproline, ratio versus control: 0.56*
  Glutamine, ratio versus control: 0.49*
[3]
  4-Hydroxyphenylpyruvate, ratio versus control: 25.92*
  Glycine, ratio versus control: 1.24*
  Phosphatidylcholine (C18:0,C18:2), ratio versus control: 1.12*
  Serine, ratio versus control: 1.18*
  TAG (C16:0,C18:2), ratio versus control: 2.2*
  TAG (C18:1,C18:2), ratio versus control: 2.89*
  TAG (C18:2,C18:2), ratio versus control: 2.47*
  Threonine, ratio versus control: 1.33*
  Tyrosine, ratio versus control: 16.29*
  gamma-Linolenic acid (C18:cis[6,9,12]3), ratio versus control: 1.55*
[4]
  5-Oxoproline, ratio versus control: 0.68*
  Glutamine, ratio versus control: 0.53*
[5]
  4-Hydroxyphenylpyruvate, ratio versus control: 24.95*
  Glycine, ratio versus control: 1.25*
  Phosphatidylcholine (C18:0,C18:2), ratio versus control: 1.11*
  Serine, ratio versus control: 1.14*
  TAG (C16:0,C18:2), ratio versus control: 2.44*
  TAG (C18:1,C18:2), ratio versus control: 3.2*
  TAG (C18:2,C18:2), ratio versus control: 2.77*
  Threonine, ratio versus control: 1.24*
  Tyrosine, ratio versus control: 12.88*
  gamma-Linolenic acid (C18:cis[6,9,12]3), ratio versus control: 1.77*
[6]
  5-Oxoproline, ratio versus control: 0.58*
  Glutamine, ratio versus control: 0.52*
[7]
  4-Hydroxyphenylpyruvate, ratio versus control: 31.22*
  Lysine, ratio versus control: 1.23*
  Threonine, ratio versus control: 1.16*
  Tyrosine, ratio versus control: 21.56*
[8]
  5-Oxoproline, ratio versus control: 0.5*
  Citrulline, ratio versus control: 0.73*
  Glutamine, ratio versus control: 0.41*
  Phenylalanine, ratio versus control: 0.79*
[9]
  4-Hydroxyphenylpyruvate, ratio versus control: 34.78*
  Lysine, ratio versus control: 1.32*
  Threonine, ratio versus control: 1.2*
  Tyrosine, ratio versus control: 18.22*
[10]
  5-Oxoproline, ratio versus control: 0.58*
  Citrulline, ratio versus control: 0.72*
  Glutamine, ratio versus control: 0.43*
  Phenylalanine, ratio versus control: 0.9*
[11]
  4-Hydroxyphenylpyruvate, ratio versus control: 25.05*
  Lysine, ratio versus control: 1.29*
  Threonine, ratio versus control: 1.5*
  Tyrosine, ratio versus control: 14.42*
[12]
  5-Oxoproline, ratio versus control: 0.54*
  Citrulline, ratio versus control: 0.8*
  Glutamine, ratio versus control: 0.41*
  Phenylalanine, ratio versus control: 0.82

## CN1CCc2cccc3c2[C@H]1Cc1ccc(O)c(O)c1-3 [Apomorphine]
[13]
  Isoleucine, ratio versus control: 1.25*
[14]
  14-Methylhexadecanoic acid, ratio versus control: 0.83*
  16-Methylheptadecanoic acid, ratio versus control: 0.66*
  17-Methyloctadecanoic acid, ratio versus control: 0.73*
  Ceramide (d18:1,C24:1), ratio versus control: 0.61*
  Choline plasmalogen No 03, ratio versus control: 0.89*
  Isopalmitic acid (C16:0), ratio versus control: 0.93
  Lactate, ratio versus control: 0.9
  Myristic acid (C14:0), ratio versus control: 0.9*
  Phosphatidylcholine (C16:0, C20:4), ratio versus control: 0.88*
  Phosphatidylcholine No 04, ratio versus control: 0.88*
  Pyruvate, ratio versus control: 0.33*
[15]
  3-Hydroxybutyrate, ratio versus control: 1.41 *
  Isoleucine, ratio versus control: 1.25 *
  TAG (C16:0,C18:2), ratio versus control: 2.31 *
[16]
  16-Methylheptadecanoic acid, ratio versus control: 0.66 *
  17-Methyloctadecanoic acid, ratio versus control: 0.73 *
  Ceramide (d18:1,C24:1), ratio versus control: 0.61 *
  Phosphatidylcholine (C16:0, C20:4), ratio versus control: 0.88 *
  Phosphatidylcholine (C18:0, C20:3), ratio versus control: 0.98 *
  Pyruvate, ratio versus control: 0.33 *

## CC(=O)[O-].[Tl+] [Thallium(I) acetate]
Male rats, day 7 (m7)
  5-Oxoproline, plasma metabolite ratio versus control: 0.92
  Alanine, plasma metabolite ratio versus control: 0.81
  Arginine (second line of the table), plasma metabolite ratio versus control: 0.90
  Arginine, plasma metabolite ratio versus control: 0.97
  Citrulline, plasma metabolite ratio versus control: 0.84
  Glutamine, plasma metabolite ratio versus control: 0.83
  Proline, plasma metabolite ratio versus control: 0.85
  Tyrosine, plasma metabolite ratio versus control: 0.82
Male rats, day 14 (m14)
  5-Oxoproline, plasma metabolite ratio versus control: 0.87
  Alanine, plasma metabolite ratio versus control: 0.95
  Arginine (second line of the table), plasma metabolite ratio versus control: 0.80
  Arginine, plasma metabolite ratio versus control: 0.87
  Citrulline, plasma metabolite ratio versus control: 0.84
  Glutamine, plasma metabolite ratio versus control: 0.77
  Proline, plasma metabolite ratio versus control: 0.80
  Tyrosine, plasma metabolite ratio versus control: 0.90
Male rats, day 28 (m28)
  5-Oxoproline, plasma metabolite ratio versus control: 0.83
  Alanine, plasma metabolite ratio versus control: 0.79
  Arginine (second line of the table), plasma metabolite ratio versus control: 0.85
  Arginine, plasma metabolite ratio versus control: 0.84
  Citrulline, plasma metabolite ratio versus control: 0.94
  Glutamine, plasma metabolite ratio versus control: 0.78
  Proline, plasma metabolite ratio versus control: 0.85
  Tyrosine, plasma metabolite ratio versus control: 0.87
plasma, male rats, day 7, high dose, Table 12a
  Creatinine, ratio versus control: 1.69
plasma, male rats, day 14, high dose, Table 12a
  Creatinine, ratio versus control: 1.50
plasma, male rats, day 28, high dose, Table 12a
  Creatinine, ratio versus control: 1.89

## CN(C)CCCN1c2ccccc2Sc2ccc(Cl)cc21 [Chlorpromazine]
[17]
  Ceramide (d18:1,C24:1), ratio versus control: 2.34*
  Docosapentaenoic acid (C22:cis[7,10,13,16,19]5), ratio versus control: 1.46
  Elaidic acid (C18:trans[9]1), ratio versus control: 1.46
  Myristic acid (C14:0), ratio versus control: 0.91
  Phosphatidylcholine (C16:0,C16:0), ratio versus control: 1.11*
  Phosphatidylcholine (C16:1,C18:2), ratio versus control: 1.38*
  TAG No 07, ratio versus control: 2.57*
  myo-Inositol, lipid fraction, ratio versus control: 1.42
[18]
  Creatinine, ratio versus control: 0.97
  Glutamate, ratio versus control: 0.83*
  Glycine, ratio versus control: 1.01
  Lactate, ratio versus control: 0.65*
  Myristic acid (C14:0), ratio versus control: 0.91
  Uric acid, ratio versus control: 0.62*
[19]
  Ceramide (d18:1,C24:1), ratio versus control: 1.44*
  Docosapentaenoic acid (C22:cis[7,10,13,16,19]5), ratio versus control: 1.17
  Galactose, lipid fraction, ratio versus control: 1
  Myristic acid (C14:0), ratio versus control: 1.04
  Phosphatidylcholine (C16:0,C16:0), ratio versus control: 1.3*
  Phosphatidylcholine (C16:1,C18:2), ratio versus control: 1.02
  TAG No 07, ratio versus control: 1.79
  myo-Inositol, lipid fraction, ratio versus control: 1.02
[20]
  Creatinine, ratio versus control: 0.86
  Glutamate, ratio versus control: 0.93*
  Lactate, ratio versus control: 0.97
  Myristic acid (C14:0), ratio versus control: 1.04
  Uric acid, ratio versus control: 0.84
[21]
  Ceramide (d18:1,C24:1), ratio versus control: 1.22
  Docosapentaenoic acid (C22:cis[7,10,13,16,19]5), ratio versus control: 1.18*
  Elaidic acid (C18:trans[9]1), ratio versus control: 0.98
  Galactose, lipid fraction, ratio versus control: 0.91
  Myristic acid (C14:0), ratio versus control: 0.89
  Phosphatidylcholine (C16:0,C16:0), ratio versus control: 1.14
  Phosphatidylcholine (C16:1,C18:2), ratio versus control: 1
  TAG No 07, ratio versus control: 2.1*
  myo-Inositol, lipid fraction, ratio versus control: 0.96
[22]
  Creatinine, ratio versus control: 0.84*
  Glutamate, ratio versus control: 1.05
  Glycine, ratio versus control: 1.01
  Lactate, ratio versus control: 0.94
  Myristic acid (C14:0), ratio versus control: 0.89*
  Uric acid, ratio versus control: 0.88
rat, in vivo
  Elaidic acid (C18:trans[9]1), ratio versus control: 1.16*
  Galactose, lipid fraction, ratio versus control: 1.34*
  Glycine, ratio versus control: 1.06*

## CCC1(c2ccccc2)C(=O)NC(=O)NC1=O [Phenobarbital sodium]
rat, in vivo
  3-Indoxylsulfate, ratio versus control: 1.81 *
  Coenzyme Q9, ratio versus control: 1.08 *
  Glutamate, ratio versus control: 0.78 *
  Isoleucine, ratio versus control: 1.12 *
  Ketoleucine, ratio versus control: 0.88 *
  Malate, ratio versus control: 0.69 *
  Pantothenic acid, ratio versus control: 1.33 *
  Phosphate (inorganic and organic phosphates), ratio versus control: 1.17 *
  Phosphatidylcholine (C16:0, C20:4), ratio versus control: 0.99 *
  Phosphatidylcholine (C16:0, C22_6), ratio versus control: 0.93 *
  Pyruvate, ratio versus control: 0.73 *
  Valine, ratio versus control: 1.15 *
  alpha-Tocopherol, ratio versus control: 1.14 *
  myo-Inositol, ratio versus control: 0.94 *

## C#CCN(C)[C@H](C)Cc1ccccc1 [Selegiline hydrochloride]
[13]
  3-Methoxytyrosine, ratio versus control: 1.38*
  Isoleucine, ratio versus control: 1.18*
[14]
  4-Hydroxy-3-methoxyphenylglycol (HMPG), ratio versus control: 0.3*
  14-Methylhexadecanoic acid, ratio versus control: 1.04
  16-Methylheptadecanoic acid, ratio versus control: 0.55*
  17-Methyloctadecanoic acid, ratio versus control: 0.57*
  Ceramide (d18:1,C24:1), ratio versus control: 0.48*
  Choline plasmalogen No 03, ratio versus control: 0.82
  Homovanillic acid (HVA), ratio versus control: 0.45*
  Isopalmitic acid (C16:0), ratio versus control: 0.69*
  Lactate, ratio versus control: 0.72*
  Myristic acid (C14:0), ratio versus control: 0.97
  Phosphatidylcholine (C16:0, C20:4), ratio versus control: 0.94*
  Phosphatidylcholine No 04, ratio versus control: 0.84
  Pyruvate, ratio versus control: 0.36*
[15]
  3-Hydroxybutyrate, ratio versus control: 1.29 *
  Isoleucine, ratio versus control: 1.18 *
  TAG (C16:0,C18:2), ratio versus control: 1.81 *
[16]
  16-Methylheptadecanoic acid, ratio versus control: 0.55 *
  17-Methyloctadecanoic acid, ratio versus control: 0.57 *
  Ceramide (d18:1,C24:1), ratio versus control: 0.48 *
  Phosphatidylcholine (C16:0, C20:4), ratio versus control: 0.94 *
  Phosphatidylcholine (C18:0, C20:3), ratio versus control: 0.92 *
  Pyruvate, ratio versus control: 0.36 *
